According to PubChem BioAssay AID463203 (Broad Institute, 2010):
Calls of active or inactive are those of the source.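 How the source made its calls: active means more than half of replicate measurements showing over 20% loss of kinase signal relative to plate controls; inconclusive means some but at most half of replicates over 20% loss; inactive means no replicate over 20% signal loss.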

Biological target: Glycogen synthase kinase-3 alpha (Homo sapiens) (UniProt P49840)
Assay: concentration-response blocking of human GSK3A – biochemical, luminescence, cell-free homogeneous, retest, dose response (AID 463203)
Conditions: GSK-3 alpha enzyme, ADP-Glo luminescence, 60 min

Sequence of Glycogen synthase kinase-3 alpha (Homo sapiens) (P49840 whole entry, looked up): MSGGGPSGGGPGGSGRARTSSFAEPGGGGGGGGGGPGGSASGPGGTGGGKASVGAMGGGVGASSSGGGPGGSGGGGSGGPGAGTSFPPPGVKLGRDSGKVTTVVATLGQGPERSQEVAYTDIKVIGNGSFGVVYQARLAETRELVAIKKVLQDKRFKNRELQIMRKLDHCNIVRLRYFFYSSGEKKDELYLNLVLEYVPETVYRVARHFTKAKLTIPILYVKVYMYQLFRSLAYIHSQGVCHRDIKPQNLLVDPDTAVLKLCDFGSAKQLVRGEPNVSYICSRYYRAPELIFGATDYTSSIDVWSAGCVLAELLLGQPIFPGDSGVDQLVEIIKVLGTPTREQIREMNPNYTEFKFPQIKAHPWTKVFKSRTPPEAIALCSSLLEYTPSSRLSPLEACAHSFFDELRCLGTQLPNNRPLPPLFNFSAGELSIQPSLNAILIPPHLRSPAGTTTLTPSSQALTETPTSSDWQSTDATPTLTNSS

Row | SMILES | AC50
1 | Cc1nnc(SCC(=O)Nc2ccc(Br)cn2)[nH]c1=O | 13.7 µM
2 | O=S(=O)(Nc1ccccc1O)c1cccc2cccnc12 | > 30 µM (inactive)
3 | COc1ccc(CC(=O)Oc2ccc(C)cc2C)cc1 | > 30 µM (inactive)
4 | COCc1c(C(=O)N/N=C\c2cccnc2)nnn1-c1nonc1N | > 30 µM (inactive)
5 | O=[N+]([O-])c1cc(C(F)(F)F)ccc1NCCCN1CCOCC1 | > 30 µM (inactive)
6 | COc1ccc(/C=C(\C#N)C(=O)N=CN(C)C)cc1 | > 30 µM (inactive)
7 | CC(C)(C)c1cc(-c2nc(N)nc(N)n2)c(O)c(C(C)(C)C)c1 | > 30 µM (inactive)
8 | CCCCC(=O)Nc1nn(CCC)c2nc3ccccc3cc12 | > 30 µM (inactive)
9 | C#CCSc1nnc(-c2ccc(O)cc2)o1 | 25.5 µM
10 | O=C(O)c1cc(-c2ccc(/C=N/N3C(=O)C4C5C=CC(C6CC56)C4C3=O)o2)ccc1Cl (stereo unspecified) | > 30 µM (inactive)
11 | COc1cc(/C=C/c2nc(N)nc(-c3ccccc3O)n2)cc(OC)c1OC | > 30 µM (inactive)
12 | COCc1nnc(NC(=O)CCCCCN2C(=O)c3ccccc3C2=O)s1 | > 30 µM (inactive)
13 | O=c1cc(-c2ccccc2)[nH]n1-c1ccc([N+](=O)[O-])cc1 | > 30 µM (inactive)
14 | CN1/C(=C\C=C2C(=O)NC(=O)NC2=O)C(C)(C)c2ccccc21 | 27.9 µM
15 | Fc1cccc(Nc2nc(-c3ccncc3)nc3ccccc23)c1 | > 30 µM (inactive)
16 | COc1ccc(-n2c(O)c(C=NCc3ccc4c(c3)OCO4)c(=O)[nH]c2=O)cc1 | > 30 µM (inactive)
17 | Nc1cc(C(F)(F)F)ccc1C(=O)O | > 30 µM (inactive)
18 | CCN1CCN(c2c(Cl)cccc2NC(=O)c2cc3ccccc3o2)CC1 | > 30 µM (inactive)
19 | CCCc1cc(=O)[nH]c(SCC(=O)Nc2sc3c(c2C(N)=O)CCCC3)n1 | > 30 µM (inactive)
20 | Cc1cnc(NC(=O)C2COc3ccccc3O2)s1 (stereo unspecified) | 19.2 µM
21 | CC1=C(C(=O)OCc2ccccc2)C(c2cccc(F)c2)NC(=O)N1 (stereo unspecified) | > 30 µM (inactive)

Row | SMILES | AC50
22 | CCn1c(SCC(=O)N/N=C/c2cccs2)nc2ccccc21 | > 30 µM (inactive)
23 | CCOC(=O)c1ccc(N2CSC3=C(C#N)C(c4ccc(OC)cc4OC)CC(=O)N3C2)cc1 (stereo unspecified) | > 30 µM (inactive)
24 | COc1ccc(-c2cn3cccnc3n2)cc1NC(=O)CC(C)C | > 30 µM (inactive)
25 | Cc1ccc(-n2nnnc2SCc2nnc(-c3ccccc3Br)o2)cc1 | > 30 µM (inactive)
26 | COC(=O)C1(C#N)C(c2ccccc2)C1(C(=O)OC)C(=O)OC (stereo unspecified) | > 30 µM (inactive)
27 | N#CC1=C(S)N(c2ccccc2)C(c2ccco2)NC1=O (stereo unspecified) | > 30 µM (inactive)
28 | O=C1c2cnc3nc(SCc4ccccc4)nn3c2CC2c3ccccc3CCN12 (stereo unspecified) | > 30 µM (inactive)
29 | Cc1ccc(N(Cc2ccc([N+](=O)[O-])cc2)C(=O)c2ccco2)cc1C | > 30 µM (inactive)
30 | Cc1ccc(C)c(-n2c3nc(=O)n(C)c(=O)c-3cc3ccccc32)c1 | 31.3 µM
31 | O=C(O)c1ccc(N=c2oc3cc(O)ccc3cc2C(=O)NCc2ccccc2)cc1 | 5.83 µM
32 | CCCNc1nc(Cl)nc(Nc2ccc(Cl)cc2)n1 | > 30 µM (inactive)
33 | CC(C)NC(=O)NC(=O)CSc1nncn1C | > 30 µM (inactive)
34 | CCC(=O)NCCNc1ccc([N+](=O)[O-])cn1 | > 30 µM (inactive)
35 | COc1ccc([C@H]2[C@H](C(=O)C(C)(C)C)N3N=Cc4ccccc4C3[C@]23N=C(c2ccccc2)OC3=O)cc1OC (stereo partly specified) | > 30 µM (inactive)
36 | CCOC(=O)c1cc(CC)sc1NC(=O)COC(=O)c1ccccn1 | > 30 µM (inactive)
37 | COCCCNc1nc2nonc2nc1N1C[C@H]2CC[C@H]1C2 | > 30 µM (inactive)
38 | Cc1ccc(N(CC(O)CN2CCCC2)S(=O)(=O)c2ccccc2)cc1 (stereo unspecified) | > 30 µM (inactive)
39 | COc1cc(/C=N/NC(=O)c2nnn(-c3nonc3N)c2-c2cccs2)ccc1O | 4.37 µM
40 | CCCCc1ccc(NC(=O)N[C@H](C(=O)O)C(C)C)cc1 | > 30 µM (inactive)
41 | CCOC(=O)c1nnn(-c2nonc2N)c1COc1cc(C)c(Cl)c(C)c1 | 6.9 µM
